The record followed here is patent US20260041649A1, “ANTI-INFLAMMATORY AGENT” (WATANABE OYSTER LABORATORY, CO., LTD., priority 2023, published 2026).

The experiment has as its system RAW264.7 cells cultured with LPS. The experiment can be described thus: Cell death of RAW264.7 cells cultured with LPS. It is filed as cell-based, mouse. The settings on record: DHMBA 1 or 10 μM, LPS 100 ng/ml, 48 hours, subconfluent cells. The protocol: In FIG. 5A, to examine the effect on cell proliferation, RAW264.7 cells (1×10^5/ml/well) were cultured for 3 days in a DMEM culture medium containing 10% FBS, 1% P/S, and 1% fungizone in the control group (1% ethanol as final concentration) with or without LPS (1, 10, 50, 100, 500 ng/ml). In FIG. 5B, cells (1×10^5/ml per well) were cultured for 3 days in a DMEM culture medium containing 10% FBS, 1% P/S, and 1% fungizone in the DHMBA-treated group (1 or 10 μM) with or without LPS (100 ng/ml). In FIG. 5C, to examine the effect on cell death, cells that had reached subconfluence after 3 days of culture were cultured for another 48 hours in the control group (1% ethanol) with or without LPS (1, 10, 50, 100, or 500 ng/ml). […] After the culture, the number of cells attached to the dish was counted. […]
In an additional experiment, to determine the effect of DHMBA on RAW264.7 cell death, RAW264.7 cells were cultured in the presence of LPS. […] After the culture, the cells were detached with a Ca^2+/Mg^2+ free PBS solution with 0.05% trypsin/EDTA (0.1 ml per well) as described in the “Cell proliferation assay” section, and the cells were counted as described in the “Cell count” section below. […]
The number of viable cells was counted under a microscope (Olympus MTV-3) using a hemocytometer (Sigma-Aldrich) and a cell counter (H-102P, Line Seiki Co., Ltd., Tokyo, Japan).

Regarding `COc1c(O)cc(CO)cc1O` [DHMBA, 3,5-dihydroxy-4-methoxybenzyl alcohol], the “effect on RAW264.7 cell death in the presence of LPS” value is “exhibited”.
